Read-outs that look alike come from different tables or passages of the source.
Key:
[1] = test system: patients; conditions: in 100% oxygen for middle-aged men, cited from earlier work
[2] = test system: patients; experiment: Conscious sedation (CS) level, MAC equivalent of 70% nitrous oxide; format: in vivo, human
Procedure: The concentration of oxygen in the atmosphere approximates 21%. […] The most common ratio is 70% N2O/30% oxygen, although some delivery systems maintain 50% oxygen.
The potency of anesthetic agents is measured by the minimum alveolar concentration of an anesthetic producing immobility in 50% of patients, defined as 39 year old males, undergoing surgical incision (“MAC”). […] In present inhalant conscious sedation systems, nitrous oxide is delivered in conjunction with a minimum of 30% oxygen to insure the patient maintains a sufficient level of oxygen. […] For this description a MAC equivalent of 70% nitrous oxide will be used for comparison with other inhalants, as shown in Table 2.

[3] = soda lime (calcium hydroxide) and/or UV light; cited from earlier work
[4] = test system: patient; conditions: conscious sedation; cited from earlier work
[5] = test system: patients; conditions: N2O with oxygen; cited from earlier work

Row | Structure (SMILES) | MAC [1] | Implied CS Level ([2]; in vivo) | decomposition in presence of soda lime and/or UV light [3] | Abuse Potential [4] | Safety Profile [4] | also measured
1 | FC(F)OC(F)C(F)(F)F (stereo not shown) [Desflurane] | 6.00% | 3.82% |  |  |  | 
2 | FC(F)OC(F)(F)C(F)Cl (stereo not shown) [Enflurane] | 1.68% | 1.07% |  |  |  | 
3 | FC(F)(F)C(Cl)Br (stereo not shown) [Halothane] | 0.75% | 0.48% | decompose |  |  | 
4 | CN1C(=O)CN=C(c2ccccc2)c2cc(Cl)ccc21 [IV Diazepam, Diazepam] |  |  |  | Controlled | Moderate | 
5 | Cc1ncc2n1-c1ccc(Cl)cc1C(c1ccccc1F)=NC2 [IV Midazolam, Midazolam] |  |  |  | Controlled | Moderate | 
6 | FC(F)OC(Cl)C(F)(F)F (stereo not shown) [Isoflurane] | 1.15% | 0.73% |  |  |  | 
7 | COC(F)(F)C(Cl)Cl [Methoxyflurane] | 0.16% |  | decompose |  |  | MAC ([1]; listed as methoxyflurane): 0.16%; Implied CS Level ([2]; MAC equivalent of 70% nitrous oxide (.636)): 0.11%
8 | [N-]=[N+]=O [Nitrous Oxide] | 110.00% | 70.00% |  | Recre- | Teratogenic | MAC ([1]; listed as nitrous oxide): 110%; MAC Equivalent ([2]; in vivo): .636; Minimum Alveolar Content (MAC) of 70% N2O/30% oxygen mixture ([2]; in vivo): 0.636 MAC; mixture concentration at which conscious sedation occurs in most patients [5]: 70%
9 | FCOC(C(F)(F)F)C(F)(F)F [Sevoflurane] | 2.00% | 1.27% | decompose |  |  | 

— patent US8393321B2, “Drug delivery system for conscious sedation” (Piramal Critical Care, Inc., priority 2001, dated 2013)
